The supplement of paper PMC10307832

compound: Cc1ccc(NC(=O)c2ccc(CN3CCN(C)CC3)cc2)cc1Nc1nc(-c2cccnc2)cs1 [Masitinib] + CC(=O)Nc1cccc(-n2c(=O)n(C3CC3)c(=O)c3c(Nc4ccc(I)cc4F)n(C)c(=O)c(C)c32)c1 [Trametinib] (partner 0.02 µM); experiment: relative viability (nuclei count vs DMSO), 5 days (fraction); higher = more cells survive; conditions: first compound 1 µM
How it was run: (§1)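 One day after seeding in 1536-well plates, lung cancer cell lines were dosed by pin tool. Dosing was either single-drug or a fixed anchor-drug dose plus five library-drug doses (not always all listed) in √10 steps. After 5 days, nuclei were stained in one fix-and-stain step and counted on 4× images, and relative viability is the nuclei count of treated wells over that of vehicle wells, given as the median of duplicate plates.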

| Cell Line | relative viability |
| --- | --- |
| HCC-15 | 0.354 |
| NCI-H1944 | 0.368 |
| PC-3 [JPC-3] | 0.616 |

compound: Cc1ccc(NC(=O)c2ccc(CN3CCN(C)CC3)cc2)cc1Nc1nc(-c2cccnc2)cs1 [Masitinib] + CCNC(=O)c1noc(-c2cc(C(C)C)c(O)cc2O)c1-c1ccc(CN2CCOCC2)cc1 [Luminespib] (partner 0.01 µM); experiment: as above; conditions: first compound 0.01 µM
How it was run: as §1

| Cell Line | relative viability |
| --- | --- |
| HCC-44 | 1.04 |
| LXF-289 | 0.581 |
| BEN | 0.436 |
| NCI-H441 | 0.288 |
| NCI-H2023 | 0.61 |
| NCI-H460 | 0.0454 |
| NCI-H727 | 0.494 |
| NCI-H520 | 0.223 |
| NCI-H2405 | 0.606 |
| SW 1573 | 0.172 |
| NCI-H1395 | 0.626 |
| 201T | 0.821 |
| NCI-H1975 | 0.246 |
| HCC-827 | 0.597 |
| NCI-H2347 | 0.758 |
| NCI-H1355 | 0.643 |
| NCI-H650 | 0.7 |
| CAL-12T | 0.513 |
| EPLC-272H | 0.27 |
| NCI-H1437 | 1.15 |
| NCI-H322M | 0.875 |
| NCI-H1792 | 0.341 |
| NCI-H2085 | 0.368 |
| HCC-15 | 0.306 |
| PC-3 [JPC-3] | 0.741 |

same assay, conditions: first compound 0.03162 µM

| Cell Line | relative viability |
| --- | --- |
| HCC-44 | 1.17 |
| LXF-289 | 0.796 |
| HARA | 0.609 |
| NCI-H441 | 0.402 |
| LCLC-97TM1 | 0.777 |
| NCI-H2023 | 0.664 |
| A-427 | 1.1 |
| NCI-H460 | 0.0362 |
| NCI-H727 | 0.324 |
| NCI-H1755 | 0.528 |
| NCI-H520 | 0.24 |
| NCI-H2405 | 0.64 |
| SW 1573 | 0.231 |
| NCI-H1395 | 0.682 |
| 201T | 1.13 |
| NCI-H1975 | 0.287 |

| Cell Line | relative viability |
| --- | --- |
| HCC-827 | 0.906 |
| NCI-H2347 | 0.299 |
| NCI-H1355 | 0.564 |
| NCI-H650 | 0.908 |
| CAL-12T | 0.403 |
| NCI-H1666 | 1.05 |
| EPLC-272H | 0.237 |
| NCI-H23 | 0.253 |
| NCI-H1915 | 0.815 |
| NCI-H1437 | 1.19 |
| NCI-H322M | 0.924 |
| NCI-H1792 | 0.206 |
| NCI-H2085 | 0.428 |
| HCC-15 | 0.389 |
| NCI-H1944 | 0.829 |
| PC-3 [JPC-3] | 0.571 |

same assay, conditions: first compound 0.1 µM

| Cell Line | relative viability |
| --- | --- |
| HCC-44 | 1.08 |
| LXF-289 | 0.775 |
| BEN | 0.631 |
| HARA | 0.44 |
| NCI-H441 | 0.349 |
| LCLC-97TM1 | 0.857 |
| NCI-H2023 | 0.786 |
| A-427 | 1.13 |
| NCI-H460 | 0.0338 |
| NCI-H727 | 0.831 |
| NCI-H1755 | 0.414 |
| NCI-H520 | 0.24 |
| NCI-H2405 | 0.692 |
| SW 1573 | 0.214 |
| NCI-H1395 | 0.864 |
| 201T | 0.944 |

| Cell Line | relative viability |
| --- | --- |
| NCI-H1975 | 0.22 |
| HCC-827 | 0.816 |
| NCI-H2347 | 0.41 |
| NCI-H1355 | 0.766 |
| NCI-H650 | 0.798 |
| CAL-12T | 0.363 |
| NCI-H1666 | 1.1 |
| EPLC-272H | 0.262 |
| NCI-H23 | 0.221 |
| NCI-H1437 | 1.16 |
| NCI-H322M | 0.878 |
| NCI-H1792 | 0.41 |
| NCI-H2085 | 0.423 |
| HCC-15 | 0.37 |
| PC-3 [JPC-3] | 0.774 |

same assay, conditions: first compound 0.3162 µM

| Cell Line | relative viability |
| --- | --- |
| HCC-44 | 1.03 |
| LXF-289 | 0.746 |
| BEN | 0.378 |
| HARA | 0.682 |
| NCI-H441 | 0.407 |
| LCLC-97TM1 | 0.946 |
| NCI-H2023 | 0.69 |
| A-427 | 0.814 |
| NCI-H460 | 0.0453 |
| NCI-H727 | 0.341 |
| NCI-H1755 | 0.697 |
| NCI-H520 | 0.217 |
| NCI-H2405 | 0.521 |
| SW 1573 | 0.261 |
| NCI-H1395 | 0.506 |
| 201T | 1.07 |
| NCI-H1975 | 0.156 |

| Cell Line | relative viability |
| --- | --- |
| HCC-827 | 0.558 |
| NCI-H2347 | 0.556 |
| NCI-H1355 | 0.623 |
| NCI-H650 | 0.853 |
| CAL-12T | 0.469 |
| NCI-H1666 | 1.03 |
| EPLC-272H | 0.195 |
| NCI-H23 | 0.22 |
| NCI-H1915 | 0.938 |
| NCI-H1437 | 1.18 |
| NCI-H322M | 0.876 |
| NCI-H1792 | 0.397 |
| NCI-H2085 | 0.403 |
| HCC-15 | 0.476 |
| NCI-H1944 | 0.576 |
| PC-3 [JPC-3] | 0.783 |

same assay, conditions: first compound 1 µM

| Cell Line | relative viability |
| --- | --- |
| HCC-44 | 1.09 |
| LXF-289 | 0.541 |
| BEN | 0.37 |
| HARA | 0.731 |
| NCI-H441 | 0.318 |
| LCLC-97TM1 | 0.857 |
| NCI-H2023 | 0.753 |
| A-427 | 1.18 |
| NCI-H460 | 0.0276 |
| NCI-H727 | 0.416 |
| NCI-H1755 | 0.331 |
| NCI-H520 | 0.2 |
| NCI-H2405 | 0.571 |
| SW 1573 | 0.302 |
| NCI-H1395 | 0.611 |
| 201T | 0.993 |
| NCI-H1975 | 0.124 |

| Cell Line | relative viability |
| --- | --- |
| HCC-827 | 0.583 |
| NCI-H2347 | 0.326 |
| NCI-H1355 | 0.738 |
| NCI-H650 | 0.766 |
| CAL-12T | 0.306 |
| NCI-H1666 | 1.01 |
| EPLC-272H | 0.232 |
| NCI-H23 | 0.206 |
| NCI-H1915 | 0.896 |
| NCI-H1437 | 1.14 |
| NCI-H322M | 0.812 |
| NCI-H1792 | 0.402 |
| NCI-H2085 | 0.443 |
| HCC-15 | 0.141 |
| NCI-H1944 | 0.697 |
| PC-3 [JPC-3] | 0.677 |

compound: Cc1ccc(NC(=O)c2ccc(CN3CCN(C)CC3)cc2)cc1Nc1nc(-c2cccnc2)cs1 [Masitinib] + C[C@]1(O)C[C@@H](c2nc(-c3ccc4ccc(-c5ccccc5)nc4c3)c3c(N)nccn32)C1 [Linsitinib] (partner 1 µM); experiment: as above; conditions: first compound 0.01 µM
How it was run: as §1

| Cell Line | relative viability |
| --- | --- |
| HCC-44 | 0.567 |
